Measured values: publication PMC8044163, “Vitamin D and lumisterol derivatives can act on liver X receptors (LXRs)” (Scientific Reports, 2021)
Where two headings read alike, the source gives them in different places.

What was measured:
genes downstream of LXR = test: qPCR of genes downstream of LXR in murine dermal fibroblasts; type: cell-based, mouse; conditions: 10^–7 M, 24 h
Protocol: All animal studies followed guidelines outlined by the NIH Guide for the Care and Use of Laboratory Animals and protocols were approved by the Institutional Animal Care and Use Committee at the NIEHS or the UAB. The study was carried out in compliance with the ARRIVE guidelines (http://www.nc3rs.org.uk/page.asp?id=1357). Skin samples from newborn C57BL/6 mice were collected at the NIEHS. Dermal fibroblasts were isolated from the skin of newborn mice, 1–2 day old. Briefly, we followed the protocols described previously. The skin was washed in PBS, cut into smaller pieces and incubated in 2.4 U/ml of dispase II (Roche) overnight at 4 °C. The dermis was separated from the epidermis and incubated in 0.1% collagenase (Roche) at 4 °C overnight. Next day, it was cut into smaller pieces and incubated for 1 h in 0.25% Trypsin (CellGrow) at 37 °C. Single cell suspension was prepared by pipetting and draining through a cell strainer. After centrifugation, cell pellets were suspended in DMEM medium containing 10% charcoal-stripped fetal bovine serum (cFBS), mouse fibroblasts growth factor (FGF) and 1% antibiotic, and inoculated into tissue culture dishes (Midwest Scientific, TPP). Cells, in early passages, from different mice were pooled together to provide representative samples for experiments. Fibroblasts were cultured in Petri dishes (10 cm in diameter) in DMEM and 10% cFBS and triplicate semi-confluent cultures were treated as described.
(§1) RNA isolated from either fibroblasts, HaCaT cells or brain was submitted for cDNA synthesis (High Capacity cDNA Reverse Transcription Kit with RNase Inhibitor, Applied Biosystems) following the manufacturers’ protocols. RT-PCR was carried out using Cyber green, in triplicates; as previously described. Approximately, 750 ng of cDNA was used for PCR reactions. GAPDH and CIC-B were used as internal controls. Primer sequences are listed in Supplementary Table 27. Data were analyzed using GraphPad Prism statistical software one way ANOVA or t-test, where appropriate; *p < 0.05; **p < 0.01; ***p < 0.001.

LXRα/β = test: Ligand induced translocation of LXRα/β to the nucleus, imaging flow cytometry in HaCaT; type: cell-based, human; conditions: 10^–7 M, 12 h
Protocol: HaCaT cells were plated in DMEM plus 5% cFBS either on a sterile glass cover slip placed in a well of a 6-well plates for immunofluorescence (IF) assays or TPP Petri dishes for image-stream flow cytometry, and treated with 10^–7 M D3- or L3-hydroxyderivatives or 0.1% ethanol (vehicle) as a negative control was added to each well, and the cells were incubated for 12 or 24 h at 37 °C with 5% CO2. For IF the cells were fixed in 4% paraformaldehyde for 15 min, incubated in 0.5% Triton X-100 in phosphate-buffered saline (PBS) for 5 min, and washed 3 times in PBS. After blocking with 2% bovine serum albumin (BSA) in PBS for 1 h at room temperature, the cells were treated with an anti-LXRα antibody (Novus Biologicals, LLC, Centennial, CO) at 1:200 in PBS supplemented with 2% BSA overnight in 4 °C. After washing the slides were incubated with a mouse anti-rabbit IgG-FITC (Santa Cruz Biotechnology, Inc, Dallas, TX) at 1:200 dilution for 1.5 h at 37 °C. After washing the slides were mounted using propidium iodide (PI) (Vector Labs, Burlingame, California) as a nuclear counterstain. The slides were examined using a KEYENCE America BZ-X710 Fluorescence Microscope (Itasca, IL). The images were subsequently analyzed using the JACoP plugin for colocalization analysis with ImageJ[74]. Five separate high-power field (40×) images were converted to grayscale and analyzed for each condition. Manders’ coefficient (M1), calculated using a preset threshold, was used to quantify the degree of colocalization between PI and LXRα with 0 representing no colocalization, and 1 representing perfect colocalization.
For Image Stream II (Amnis, Seattle, WA, USA) cytometer analyses, HaCaT cells were detached and processed as previously described. The cells were fixed with paraformaldehyde and permeabilized in methanol containing buffer[78],[79] and Hoechst stain (r37165, ThermoFisher) and rabbit antibodies to LXRα/β (sc 377260, AF 647, SantaCruz) or VDR (sc-13133, AF 488, SantaCruz) as described previously. Data were analyzed using IDEAS software (Amnis, Seattle, WA, USA).

LBD of LXRβ = biological target: T1, LBD of LXRβ (Homo sapiens, UniProt P55055); test: LanthaScreen TR-FRET LXRβ coactivator assay (LXR binding assay); type: biochemical; conditions: agonist; average values; read-out: LXRβ EC50
T1 construct: purchased Thermo Fisher Scientific
T1 sequence (P55055 222-460 limits assumed): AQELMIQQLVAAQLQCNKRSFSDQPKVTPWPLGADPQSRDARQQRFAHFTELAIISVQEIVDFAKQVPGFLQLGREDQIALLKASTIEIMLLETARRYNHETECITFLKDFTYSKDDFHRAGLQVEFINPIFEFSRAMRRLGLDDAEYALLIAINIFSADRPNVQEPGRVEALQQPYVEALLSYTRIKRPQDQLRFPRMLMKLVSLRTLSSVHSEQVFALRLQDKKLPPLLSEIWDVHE
Protocol: (§2) Binding assays of graded concentrations of vitamin D3 or lumisterol hydroxyderivatives to LXRα/β were performed using the LanthaScreen TR-FRET LXRα/β Coactivator kit (Thermo Fisher Scientific, Inc., Waltham, MA) following the manufacture’s protocol. Briefly, after addition of LXRα/β-LBD to the derivatives, a mixture of peptide (Fluorescein-TRAP220/DRIP-2 for LXRα or Fluorescein-D22 for LXRβ) and antibody (Tb-anti-GST) was added to the reaction followed by incubation in room temperature for 2 h. TR-FRET ratio was calculated by dividing the emission at 520 nm by the emission at 495 nm using Synergy neo2 (BioTek, Winooski, VT).

LBD of LXRα = biological target: T2, LBD of LXRα (Homo sapiens, UniProt Q13133); test: LanthaScreen TR-FRET LXRα coactivator assay (LXR binding assay); type: biochemical; conditions: average values; for IC50: inverse agonist; for EC50: agonist, read-out: LXRα EC50
T2 construct: after addition of LXRα/β-LBD to the derivatives; purchased Thermo Fisher Scientific
T2 sequence (Q13133 209-447 limits assumed): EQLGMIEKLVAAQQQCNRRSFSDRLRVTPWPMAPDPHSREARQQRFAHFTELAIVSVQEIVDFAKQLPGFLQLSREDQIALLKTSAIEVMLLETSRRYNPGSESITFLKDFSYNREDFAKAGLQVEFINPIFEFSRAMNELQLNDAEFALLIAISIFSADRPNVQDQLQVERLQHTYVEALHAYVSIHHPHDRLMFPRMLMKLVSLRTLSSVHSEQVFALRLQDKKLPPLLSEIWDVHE
Protocol: as §2

ABCA1 gene = conditions: HaCaT cells, 10^–7 M, microarray GSE117351 ref 44, cited from earlier work
ABCA1 = test: qPCR of ABCA1 in HaCaT keratinocytes; type: cell-based, human; conditions: 10^–7 M
Protocol: HaCaT keratinocytes were cultured as described previously. For RNA isolation the cells were maintained in TPP tissue culture petri dishes (Ø60 mm, 22.1 cm^2) in DMEM containing 10% cFBC to reach semi-confluence and then exposed to 10^–7 M compounds or a corresponding concentration of ethanol solvent.
as §1

Cyp7a1 expression (genes downstream of LXR) | EC50 (LBD of LXRβ) [nM] | IC50 (LBD of LXRα) [nM] | EC50 (LBD of LXRα) [nM] | Compound | Fas (fatty acid synthase) expression (genes downstream of LXR) | translocation of LXRα/β from the cytoplasm to the nucleus (LXRα/β) | ABCA1 expression, stimulation (ABCA1 gene; 6 h) [times] | ABCA1 expression, stimulation (ABCA1 gene; 24 h) [fold] | ABCA1 RNA expression (qPCR) (ABCA1) | Abcg8 expression (genes downstream of LXR) | ApoE (apolipoprotein E) expression (genes downstream of LXR)
stimulated | 2600 | – | 15 | C=C1CC[C@H](O)C/C1=C/C=C1\CCC[C@@]2(C)[C@H]1CC[C@@H]2[C@@](C)(O)CCCC(C)C [20(OH)D3] | stimulated | increased translocation | – | – | stimulation | – | –
– | 26000 | – | 1100 | C=C1CCC(O)CC1=CC=C1CCCC2(C)C1CCC2C(C)(O)CC(O)CC(C)C (stereo not shown) [20,23(OH)2D3] | – | – | 2.8 | 2.3 | – | induced | enhanced

Further lines, the compound ahead of its results:

Compound | Cyp7a1 expression (genes downstream of LXR) | EC50 (LBD of LXRβ) [nM] | IC50 (LBD of LXRα) [nM] | EC50 (LBD of LXRα) [nM] | Fas (fatty acid synthase) expression (genes downstream of LXR) | translocation of LXRα/β from the cytoplasm to the nucleus (LXRα/β) | ABCA1 expression, stimulation (ABCA1 gene; 6 h) [times] | ABCA1 expression, stimulation (ABCA1 gene; 24 h) [fold] | ABCA1 RNA expression (qPCR) (ABCA1) | Abcg8 expression (genes downstream of LXR) | ApoE (apolipoprotein E) expression (genes downstream of LXR)
C=C1C(=CC=C2CCCC3(C)C2CCC3C(C)(O)CC(O)CC(C)C)CC(O)CC1O (stereo not shown) [1,20,23(OH)3D3] | inhibited | 1600 | 2100 | – | stimulated | increased translocation | – | – | – | – | –
C=C1/C(=C\C=C2/CCC[C@]3(C)[C@@H]([C@H](C)CCCC(C)(C)O)CC[C@@H]23)C[C@@H](O)C[C@@H]1O [1,25(OH)2D3, reference compound] | stimulated | 14000 | 1100 | – | stimulated | increased translocation | 2.4 | 2.4 | stimulation | – | –
CC(C)CCC[C@](C)(O)[C@H]1CC[C@H]2[C@@H]3CC=C4C[C@@H](O)CC[C@]4(C)[C@H]3CC[C@@]21C [20(OH)C, 20-hydroxycholesterol, reference compound] | inhibited | – | – | – | – | – | – | – | – | inhibited | inhibited
